The ASAP Discovery antiviral challenge data (2025)
Values after ≈ are worked out from the molar mass of the structure shown. Values joined by “and” are separate entries in the source; they are usually repeats but may differ in a detail not shown here. Identical values can stand only once.

Columns and labels:
[1] = mdck_mdr1
[2] = human; liver_microsomes
[3] = mouse; liver_microsomes
[4] = not given; remark: listed apart in the source

Compound	Papp [1]	microsomal CLint [2]	microsomal CLint [3]	logD	solubility kinetic [4]
CC(C)[C@@H](Nc1ncnc2[nH]c(-c3cnn(C)c3C#N)cc12)c1ccc2c(c1)OCCO2	5.11 ×10⁻⁶ cm/s	47 µL/min/mg	129 µL/min/mg	3.4	20 µM (≈ 8.59 µg/mL)
CC(C)[C@H](CO)Nc1ncnc2[nH]ccc12	13.1 ×10⁻⁶ cm/s	6 µL/min/mg	10 µL/min/mg	1.69	
CC(C)[C@H](Nc1ncnc2[nH]c(-c3cnn(C)c3C#N)cc12)c1ccc2c(c1)OCCO2	5.56 ×10⁻⁶ cm/s	706 µL/min/mg	257 µL/min/mg	3.3	15 µM (≈ 6.44 µg/mL)
CNC(=O)c1cc(Cl)c(F)cc1NS(=O)(=O)c1ccc(Oc2ccccc2Cl)cc1	6.11 ×10⁻⁶ cm/s	71.3 µL/min/mg	45.6 µL/min/mg		49 µM (≈ 23 µg/mL)
CNC(=O)c1cc(Cl)ccc1NS(=O)(=O)c1ccc(Oc2ccccc2Cl)cc1	4.91 ×10⁻⁶ cm/s	106 µL/min/mg	94 µL/min/mg	2.4	25 µM (≈ 11.3 µg/mL)
COc1cc(Cc2c(-c3ccc(F)cc3)noc2C)nc(N2CCNCC2)n1	4.78 ×10⁻⁶ cm/s	15 µL/min/mg	33 µL/min/mg	2.1	325 µM (≈ 125 µg/mL)
COc1ccc(C(=O)Nc2cccc(/C=C3/C(=O)NC(=O)c4ccccc43)c2)cc1	2.33 ×10⁻⁶ cm/s	180 µL/min/mg	127 µL/min/mg	3.6	23 µM (≈ 9.16 µg/mL)
Cc1cc(-c2noc(C(F)(F)F)n2)ccc1OCCCc1cc(C(=O)N(C)C)no1	2.26 ×10⁻⁶ cm/s	11 µL/min/mg	24.4 µL/min/mg		9 µM (≈ 3.82 µg/mL)
Cc1cc(CCCOc2c(C)cc(-c3noc(C(F)(F)F)n3)cc2C)on1	1.42 ×10⁻⁶ cm/s	11.6 µL/min/mg	21.5 µL/min/mg	4.2	18 µM (≈ 6.86 µg/mL)
N#Cc1cc2c(cc1NC(=O)c1cc(F)cc3[nH]ncc13)CNC2	3.9 ×10⁻⁶ cm/s	16.7 µL/min/mg	288 µL/min/mg	0.6	193 µM (≈ 62 µg/mL)
NCc1cccc(NC(=O)[C@@H](NC(=O)OCc2ccccc2)c2ccc(OCc3ccccc3)cc2)c1	1.53 ×10⁻⁶ cm/s	11 µL/min/mg	1 µL/min/mg	3.2	23 µM (≈ 11.4 µg/mL)
O=C(/C=C/c1ccccc1)C(=O)N1CCN(CCc2ccccc2)CC1	3 ×10⁻⁶ cm/s	167 µL/min/mg	181 µL/min/mg	3.3	239 µM (≈ 83.3 µg/mL)
O=C(Nc1cc(Br)c2c(c1)CNC2)c1cc(F)cc2[nH]ncc12	3.4 ×10⁻⁶ cm/s	13.6 µL/min/mg	145 µL/min/mg	1.8	4 µM (≈ 1.5 µg/mL)
O=C(Nc1cc2c(cc1Br)CNC2)c1cc(F)cc2[nH]ncc12	7.65 ×10⁻⁶ cm/s	11.4 µL/min/mg	299 µL/min/mg	1.1	47 µM (≈ 17.6 µg/mL)
O=C(Nc1ccc2c(c1)CNC2)c1cc(Br)cc2[nH]c(-c3ccccc3)nc12	0.0942 ×10⁻⁶ cm/s	12.8 µL/min/mg	43.8 µL/min/mg	3.6	
O=C(Nc1ccc2c(c1)CNC2)c1cc(F)cc(-c2cn[nH]c2)c1	1.62 ×10⁻⁶ cm/s	36.3 µL/min/mg	553 µL/min/mg	0.7	184 µM (≈ 59.3 µg/mL)
O=C(Nc1ccc2c(c1)CNC2)c1cccc2[nH]c(C(F)(F)F)cc12	4.1 ×10⁻⁶ cm/s	14.1 µL/min/mg	12.7 µL/min/mg	1.5	372 µM (≈ 128 µg/mL)
O=C(Nc1ccccc1)Nc1ccc(C(=O)NC2c3cccc(O)c3CC2C(=O)O)cc1 (centres undefined)	0.7 ×10⁻⁶ cm/s	9 µL/min/mg	2 µL/min/mg	0.12	319 µM (≈ 138 µg/mL)
O=C(O)c1cc(Cl)ccc1NS(=O)(=O)c1ccc(Oc2ccccc2Cl)cc1	4.01 ×10⁻⁶ cm/s	155 µL/min/mg	13 µL/min/mg	3	369 µM (≈ 162 µg/mL)
CCCC[C@H](NC(=O)OC(C)(C)C)C(=O)N[C@H](C(=O)NCc1ccc(CN)cc1)c1ccc(OCc2ccccc2)cc1 (mixture of isomers)	0.833 ×10⁻⁶ cm/s	56 µL/min/mg	7.44 µL/min/mg		143 µM
C[C@H](C(=O)O)[C@H](NC(=O)c1ncnc2[nH]ccc12)c1ccc(Br)cc1 (mixture of isomers)	1.4 ×10⁻⁶ cm/s	5 µL/min/mg	4 µL/min/mg	0.5	386 µM
CC(C)(C)[C@H](Nc1ncnc2[nH]c(-c3cnn(CC(N)=O)c3)cc12)c1ccc2c(c1)OCCO2 (racemic)	1.66 ×10⁻⁶ cm/s	133 µL/min/mg	47 µL/min/mg	3.2	195 µM (≈ 90 µg/mL)
CC(C)[C@H](Nc1ncnc(N)c1Cl)c1ccc2c(c1)S(=O)(=O)CCC2 (racemic)	10.1 ×10⁻⁶ cm/s	79 µL/min/mg	204 µL/min/mg	2.4	

Compound	Papp [1]	microsomal CLint [2]	microsomal CLint [3]	logD	solubility kinetic [4]
CC(C)[C@H](Nc1ncnc2[nH]c(-c3cnn(C)c3C#N)cc12)c1ccc2c(c1)NC(=O)CO2 (racemic)	3.07 ×10⁻⁶ cm/s	100 µL/min/mg	177 µL/min/mg	4.1	69 µM (≈ 30.5 µg/mL)
CC(C)[C@H](Nc1ncnc2[nH]c(-c3cnn(C)c3C#N)cc12)c1ccc2c(c1)OCCO2 (racemic)	4.2 ×10⁻⁶ cm/s	74 µL/min/mg	218 µL/min/mg	3	17 µM (≈ 7.3 µg/mL)
CC(C)[C@H](Nc1ncnc2[nH]c(-c3cnn(C)c3C#N)cc12)c1ccc2c(n1)OCCO2 (racemic)	12.8 ×10⁻⁶ cm/s	56 µL/min/mg	139 µL/min/mg	3.4	89 µM (≈ 38.3 µg/mL)
CC(C)[C@H](Nc1ncnc2[nH]c(-c3cnn(CC(=O)N(C)C)c3)cc12)c1ccc2c(c1)OCCO2 (racemic)	1.14 ×10⁻⁶ cm/s	142 µL/min/mg	59 µL/min/mg	2.3	210 µM (≈ 99.9 µg/mL)
CC(C)[C@H](Nc1ncnc2[nH]c(-c3cnn(CC(N)=O)c3)cc12)c1ccc2c(c1)NC(=O)CO2 (racemic)	1.36 ×10⁻⁶ cm/s	17 µL/min/mg	11 µL/min/mg	2.5	25 µM (≈ 11.5 µg/mL)
CC(C)[C@H](Nc1ncnc2[nH]c(-c3cnn(CC(N)=O)c3)cc12)c1ccc2c(c1)OCCO2 (racemic)	0.9 ×10⁻⁶ cm/s	99 µL/min/mg	41 µL/min/mg	0.9	345 µM (≈ 154 µg/mL)
CC(C)[C@H](Nc1ncnc2[nH]c(-c3cnn(CCC(N)=O)c3)cc12)c1ccc2c(c1)OCCO2 (racemic)	1.46 ×10⁻⁶ cm/s	99 µL/min/mg	62 µL/min/mg	3	236 µM (≈ 109 µg/mL)
CC(C)[C@H](Nc1ncnc2[nH]cc(C(N)=O)c12)c1ccc2c(c1)OCCO2 (racemic)	11.1 ×10⁻⁶ cm/s	143 µL/min/mg	142 µL/min/mg	3.2	375 µM (≈ 138 µg/mL)
CC(C)[C@H](Nc1ncnc2[nH]ccc12)c1ccc2c(c1)S(=O)(=O)CCC2 (racemic)	3.3 ×10⁻⁶ cm/s	37 µL/min/mg	138 µL/min/mg	2.5	385 µM (≈ 143 µg/mL)
CCNC(=O)c1cc2c(N[C@H](c3ccc4c(c3)OCCO4)C(C)C)ncnc2[nH]1 (racemic)	2.41 ×10⁻⁶ cm/s	85 µL/min/mg	88 µL/min/mg	3	72 µM (≈ 28.5 µg/mL)
CNC(=O)Cn1cc(-c2cc3c(N[C@H](c4ccc5c(c4)OCCO5)C(C)C)ncnc3[nH]2)cn1 (racemic)	1.94 ×10⁻⁶ cm/s	119 µL/min/mg	47 µL/min/mg	2.9	289 µM (≈ 133 µg/mL)
CNC(=O)c1c[nH]c2ncnc(N[C@H](c3ccc4c(c3)NC(=O)CO4)C(C)C)c12 (racemic)	4.26 ×10⁻⁶ cm/s	86 µL/min/mg	113 µL/min/mg	3.2	28 µM (≈ 11 µg/mL)
CNC(=O)c1c[nH]c2ncnc(N[C@H](c3ccc4c(c3)OCCO4)C(C)C)c12 (racemic)	16.2 ×10⁻⁶ cm/s	79 µL/min/mg	88 µL/min/mg	3.6	319 µM (≈ 122 µg/mL)
CNC(=O)c1cc2c(N[C@H](c3ccc4c(c3)NC(=O)CO4)C(C)C)ncnc2[nH]1 (racemic)	0.873 ×10⁻⁶ cm/s	52 µL/min/mg	20 µL/min/mg	2.8	372 µM (≈ 147 µg/mL)
CNC(=O)c1cc2c(N[C@H](c3ccc4c(c3)OCCO4)C(C)C)ncnc2[nH]1 (racemic)	1.96 ×10⁻⁶ cm/s	79 µL/min/mg	55 µL/min/mg	2.76	380 µM (≈ 145 µg/mL)
COc1ccc([C@H](CC(=O)O)NC(=O)c2ncnc3[nH]ccc23)cc1 (racemic)	1.7 ×10⁻⁶ cm/s	7 µL/min/mg	2 µL/min/mg	-0.38	
COc1ccc([C@H](NC(=O)c2ncnc3[nH]ccc23)C(C)c2nnn[nH]2)cc1 (mixture of isomers)	1.13 ×10⁻⁶ cm/s	2 µL/min/mg	1 µL/min/mg	0	
COc1ccc2c(c1)CCN(c1ncnc3[nH]ccc13)[C@H]2C(C)C (racemic)	7 ×10⁻⁶ cm/s	60 µL/min/mg	321 µL/min/mg	4.33	14 µM (≈ 4.51 µg/mL)
Cn1ncc(-c2cc3c(N[C@H](c4ccc5c(c4)OCCO5)C(C)(C)C)ncnc3[nH]2)c1C#N (racemic)	2.79 ×10⁻⁶ cm/s	85 µL/min/mg	199 µL/min/mg	2.9	25 µM (≈ 11.1 µg/mL)
O=C(Nc1cccc2c(C(=O)N[C@H]3c4ccccc4C[C@H]3C(=O)O)c[nH]c12)NC1CC1 (racemic)	1.8 ×10⁻⁶ cm/s	6 µL/min/mg	4 µL/min/mg	-0.05	
CC(C)[C@H](Nc1ncnc2[nH]c(-c3cnn(C)c3C#N)cc12)c1ccc2c(c1)NC(=O)CO2 (single isomer, unassigned)	1.22 ×10⁻⁶ cm/s and 2.35 ×10⁻⁶ cm/s	115 µL/min/mg and 52 µL/min/mg	81 µL/min/mg and 147 µL/min/mg		26 µM and 19 µM
CNCc1cc(-c2cc3c(N[C@H](c4ccc5c(c4)S(=O)(=O)CCC5)C(C)C)ncnc3[nH]2)co1 (single isomer, unassigned)		67 µL/min/mg and 133 µL/min/mg	40 µL/min/mg and 54 µL/min/mg	2.1 and 2.2	358 µM and 345 µM
